Data published in paper PMC11283454 (Nature Communications, 2024).
Peptide text beside a SMILES is read from it. * marks the point of attachment. Cbz = O=C(OCc1ccccc1)*

Key:
hATE1 [1] = molecular target: T1, hATE1 (Homo sapiens, UniProt O95260); test: Differential scanning fluorimetry of hATE1 with or without ligands; conditions: DSF; for change of melting temperature of hATE1 in the presence of ligand: absence of tRNA, result in words
hATE1 [2] = molecular target: T1, hATE1; test: MST direct binding assay, hATE1-peptide interaction; conditions: with vs without A + T arms
RGS4 [3] = test: Immunoblotting, proteasomal flux; conditions: MG132 10 μM, 6 h
human ATE1 = test: Intact protein analysis of purified ATE1; conditions: purified recombinant ATE1, GST-tag removed, LC-MS
RGS4 [4] = test: Immunocytochemistry, RGS4 level in ATE1 deficient HeLa cells; conditions: ATE1-KO HeLa cells

T1 sequence (O95260 1-518 isoform O95260-2): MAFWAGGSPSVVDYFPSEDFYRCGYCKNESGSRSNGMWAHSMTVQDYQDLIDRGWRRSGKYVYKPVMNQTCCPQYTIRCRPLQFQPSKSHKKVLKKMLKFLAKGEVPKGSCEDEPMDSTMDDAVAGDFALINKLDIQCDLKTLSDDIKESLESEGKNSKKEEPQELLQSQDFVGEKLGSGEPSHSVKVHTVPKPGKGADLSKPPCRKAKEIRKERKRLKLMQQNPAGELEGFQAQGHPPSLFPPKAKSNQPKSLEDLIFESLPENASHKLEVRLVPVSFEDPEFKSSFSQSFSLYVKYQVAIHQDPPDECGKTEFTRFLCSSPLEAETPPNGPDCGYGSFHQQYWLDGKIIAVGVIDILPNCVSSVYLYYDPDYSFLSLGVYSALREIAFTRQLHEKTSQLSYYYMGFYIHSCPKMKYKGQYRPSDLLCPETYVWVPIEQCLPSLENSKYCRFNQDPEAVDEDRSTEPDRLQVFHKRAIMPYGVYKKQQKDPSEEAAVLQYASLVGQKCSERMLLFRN

N=C(N)NCCC[C@H](N)C(=O)O [free arginine, arginine]
change of melting temperature of hATE1 in the presence of ligand (hATE1 [1]): no change was observed

RDDIAA-FAM
fold enhancement of binding affinity by tRNA-mimetic (A + T arms) (hATE1 [2]): 15 -fold

O=C(O)CN(CCN(CC(=O)O)CC(=O)O)CC(=O)O [EDTA]
thermal stability decrease of ATE1 on EDTA treatment (hATE1 [1]; increasing amount of EDTA, duplicate measurements): ~ 7 °C

NC(=O)CC[C@H](N)C(N)=O [glutamine amide]
change of melting temperature of hATE1 in the presence of ligand (hATE1 [1]): no change was observed

CC(C)C[C@@H](C=O)NC(=O)[C@H](CC(C)C)NC(=O)[C@H](CC(C)C)NC(=O)OCc1ccccc1 [MG132] (Cbz-Leu-Leu-Leu-aldehyde)
RGS4 accumulation post-MG132 (RGS4 [3]; ATE1-KO HeLa cells): no RGS4 accumulation
normalized P.F. index (fold change), RGS4 accumulation (RGS4 [3]; WT ATE1 HeLa cells): ~ 29 fold change

WT hATE1: human arginyl-tRNA-protein transferase 1 isoform 2, wild type, recombinant
small arginylated fraction of ATE1 (human ATE1): < 3 % of total
RGS4 level by immunostaining (RGS4 [4]): but not in those transfected with WT ATE1
RGS4 proteasomal flux / RGS4 stabilization (RGS4 [3]; ATE1-KO HeLa cells expressing the ATE1 construct): restored the P.F. index
